Measurements published in patent US20220387368A1, “AN INHIBITOR OF AN IRON-CONTAINING HYDROGENASE OF A METHANOGENIC ARCHAEON FOR USE IN THE TREATMENT OR PREVENTION OF A PARKINSONIAN CONDITION” (UNIVERSITE DU LUXEMBOURG, priority 2019, published 2022).

How the values were obtained:
enteric neurons = assay: Enteric neuron cell viability (MTT) assay; type: cell-based; settings: 24 h treatment, MTT (FIG. 5)
Procedure: Enteric neurons were cultured in differentiation medium, consisting on Neurobasal (Invitrogen, 21103049) supplemented with 1:200 N2 (Invitrogen, 17502048), 1:100 L-Glutamine (Invitrogen, 25030-024), 1:100 B-27 without Vitamin A (Life Technologies, 12587-010), 1:100 Penicillin/Streptomycin (Invitrogen, 15140122), 25 ng/mL GDNF (Peprotech, 450-10) and 100 μM Ascorbic Acid (Sigma, A5960). Cells were cultured for 21 days in a 6-well plate, then detached with Accutase (Sigma, A6964), and replated into a 96-well plate. Cells were maintained under differentiating conditions until day 31, when they were treated with increasing concentrations of 2-hydroxypyridine (Sigma, H56800). Tested concentrations were as follows: 1 μM, 3 μM, 6 μM, 10 μM, 30 μM, 60 μM, 100 μM, 300 μM, 600 μM, 1 mM and 3 mM.
2-Hydroxypyridine was reconstituted to 10 mM in the differentiation medium described above.
Cells were treated for 24 h, then cell viability was assessed performing a Tetrazolium (MTT) assay. Thiazolyl Blue tetrazolium Bromide (Sigma, M5655) was reconstituted to a 5 mg/mL solution in differentiation media and filtered. 10 μL of the solution were then added to every well containing 100 μL of media. Plate was incubated for 2 h in a normal incubator (37° C., 5% CO2). […] Cells were disaggregated by pipetting vigorously and absorbance was read at 570 nm, using the microplate Cytation 5M reader (Biotek).

IL-1b mRNA expression = IL-1b mRNA expression (qPCR) in murine BMDM model; type: cell-based; settings: 10 mM 2-HP, normalized to β-actin, relative to 0 mM
Procedure: The inventors have tested whether 2-HP can act as signal 1 in the activation of the NLRP3 inflammasome in murine bone-barrow derived macrophages (BMDMs). NLRP3 inflammasome activation is thought to play a role in the pathogenesis of neurodegenerative disorders, and increased levels of this inflammasome and of the related cytokine IL-1b have been detected in Parkinson's patients (Guan & Han, 2020). In these experiments, the cells were grown in BMDM growth media and treated with 2-hydroxypyridine (2.5 and 10 mM) for up to 72 hours. Inflammasome activation was evaluated with qPCR for IL-1b expression (normalized to β-actin), considering the fold change relative to 0 mM 2-HP of each time point. There was a 3.2-fold increase in IL-1b mRNA after 3 hours of 10 mM 2-HP treatment, and 1.5-fold increase after 24 hours (FIG. 8).

wildtype mice = assay: Adhesive removal test after injection into the brain; type: in vivo; settings: higher 2-HP concentrations, 15 days post-injection, vs PBS
Procedure: The in vivo work testing for effects of 2-HP in a mouse model lead to results from a small-scale 15-day experiment. In this experiment, 2-HP was injected at several concentrations (5, 50 and 100 mM) into the brain of transgenic mice overexpressing human alpha-synuclein, and of wildtype control mice.

alpha-synuclein = molecular target: T1, alpha-synuclein (Homo sapiens, UniProt P37840); assay: Alpha-synuclein aggregation; settings: in contact with alpha-synuclein
T1 construct: expressed in transfected cells; host or cells: HiTox yeast strains, galactose-inducible expression
Procedure: The aggregation of alpha-synuclein is the key molecular hallmark of PD.
The following abbreviations have the meaning given in brackets: α-Syn (alpha-synuclein), α-Syn-F (fibrillary alpha-synuclein, i.e. alpha-synuclein aggregations), Hoechst (DNA staining), TUJ1 (general neuronal marker), TH (tyrosine hydroxylase) and CC3 (cleaved caspase 3 staining, i.e. cell death marker, showing toxicity).
Cells fixed in 4% paraformaldehyde (Merck Millipore, 1004965000) for 15 min at RT and then washed 3× for 5 min with PBS at RT. Prior to immunostaining, a permeabilization step was performed using 0.05% Triton-X100 solution in PBS for 10 min at 4° C. Cells were then blocked for 1 h at RT with 10% FBS in PBS. Incubation with α-synuclein antibody (NOVUS biologicals, NBP1-05194, 1:1000), α-synuclein filament antibody (Abcam, ab20953, 1:5000) and TUJ1 (Millipore, AB9354, 1:600) was done overnight at 4° C. in blocking buffer. The following day, cells were washed with PBS 3× for 5 min at RT. Then, incubation with the corresponding secondary antibodies, Alexa Fluor anti-chicken 488 (Invitrogen, A-11039, 1:1000), Alexa Fluor anti-mouse IgG1 647 (Invitrogen, A-21240, 1:1000) and Alexa Fluor anti-rabbit 568 (Invitrogen, A11036, 1:1000) was performed for 2 h at RT in blocking buffer. Hoechst 33342 solution (Invitrogen, 62249, 1:1000) was added during this step to stain the nuclei. […]

[1] = system: transgenic mice (Thy1-Syn14 males); settings: mouse, in vivo
Procedure: Newly formed oligomeric forms are then propagated to the CNS via the vagus nerve.
To control toxicity and set an upper threshold level for the chronic exposure study, the ideal concentration in the animals' drinking water (ad libitum) is determined by testing three different concentrations. As reference, the LD50 value determined in rats is used as a threshold for an entire day. The animals, of an average weight of 28 g, take in […] of 2-HP per day. The second factor to account for is the volume of water a C57BI6/j mouse drinks per day, which varies between 5 mL and 8 mL. With an […] water intake per day, the maximum concentration the inventors use is 695 μg/mL of dissolved 2-HP. However, lower doses are aimed for:
These 3 doses are tested on a total of 48 animals. 24 wild-type and 24 transgenic animals are distributed amongst 12 groups. It is essential to have both genotypes in the study, since it cannot be foreseen how human wild-type alpha-synuclein and 2-HP interact in an in vivo model. Further, short-term and long-term effects are analysed. Additionally, this allows to proceed with the post-mortem analysis of the 14 days cohort, allowing to gather information of the early effects of 2-HP on an in vivo system. The following design is used:
In the in-life phase, all animals are checked regularly. Overall behavior in the cage is checked daily. […]

control strain = assay: Yeast growth toxicity assay, control strain; type: cell-based
Procedure: (§1) Yeast cells were grown in synthetic complement (SC) media containing 6.7 g/L yeast nitrogen base without amino acids, 5 g/L ammonium sulfate supplemented with 2 g/L SC. Media was autoclaved and the carbon source (8% raffinose or galactose) was added to a final concentration of 2%.
(§2) Four fresh single colonies of the Hitox strain and its respective control strain were inoculated from SC-2% glucose plates into 5 mL SC-2% raffinose and incubated overnight with shaking (200 rpm) at 30° C. After ≈20 h, overnight cultures were diluted to OD 0.5 and 2 μL of the yeast cultivation was added to 78 μL drug containing media to a final optical density of 0.0125 in a 384-well microplate. 2-HP was diluted in SC-2% raffinose/galactose and tested at different concentrations (1-100 mM). Finally, the plates are measured in a microplate reader (TECAN™ Infinite M200Pro), at an interval of 10 minutes during 72 h at 30° C. Yeast growth phenotyping was performed as previous described (Jung et al. 2015). Final biomass was corrected using the GATHODE software (Jung et al., 2015). The OD600 at 48 h was taken for the quantification.

rats = settings: oral administration; cited from earlier work
[2] = system: HiTox strains of yeast expressing human alpha-synuclein; assay: Yeast growth toxicity assay, HiTox strain; type: cell-based
Procedure: as §1, §2

[3] = control, higher concentration of 2-HP (FIG. 3C)

Oc1ccccn1 [2-HP, 2-hydroxypyridine]
LD50 (enteric neurons): around 3 mM | increase in IL-1b mRNA (IL-1b mRNA expression; 3 hours): 3.2 fold | increase in IL-1b mRNA (IL-1b mRNA expression; 24 hours): 1.5 fold | performance in adhesive removal test (sensorimotor function) (wildtype mice): perform worse | effect on alpha-synuclein aggregation (alpha-synuclein): promotes aggregation | alpha-synuclein in ENS [1]: increased accumulation up to aggregation of alpha-synuclein | motor symptoms and PD-like pathology [1]: exacerbation of motor symptoms | lag time of growth curve (control strain; [3]): prolonged | yield of growth curve (control strain; [3]): unaffected | toxicity (growth), control strain (control strain; in presence of galactose, control strain (FIG. 3B)): not in the control strain | LD50 (rats): 124 mg/kg | dose at which selectively toxic to transgenic alpha-synuclein expressing yeast ([2]; HiTox strains of yeast expressing human alpha-synuclein): 1 mM | toxicity (growth), alpha-synuclein induced ([2]; in presence of galactose, HiTox strains (FIG. 3B)): A toxic dose-response can be observed in the HiTox strains | toxicity (growth), alpha-synuclein not induced ([2]; in presence of raffinose (FIG. 3A)): A toxic dose-response can be observed
